From patent US5210193A, “Piperazine derivatives” (American Cyanamid Company, priority 1990, dated 1993)
≈ marks a conversion by molar mass, not a printed value. Read-outs that look alike come from different tables or passages of the source.

Columns and labels:
Test in all cases: in vitro antibacterial MIC, agar plate dilution
Format in all cases: cell-based
[1] = system: Escherichia coli VGH 84-19; settings: Escherichia coli, VGH8419, 18 h, 35° C., read-out: MIC
In short: (§1)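 Agar plate dilution on Mueller-Hinton agar, inoculum approximately 10^4 CFU per organism applied with a Steers replicator. MIC (mcg/ml) is the lowest compound concentration inhibiting visible growth after 18 hours at 35° C.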

[2] = system: Pseudomonas aeruginosa LL-1244; settings: Pseudomonas aeruginosa, LL1244, 18 h, 35° C., read-out: MIC
In short: as §1

[3] = system: Escherichia coli CMC 84-11; settings: Escherichia coli, CMC8411, 18 h, 35° C., read-out: MIC
In short: as §1

[4] = system: Klebsiella pneumoniae MOR 84-24; settings: Klebsiella pneumoniae, MOR8424, 18 h, 35° C., read-out: MIC
In short: as §1

[5] = system: Escherichia coli ATCC 25922; settings: 35° C.
In short: as §1

[6] = system: Pseudomonas aeruginosa VGH 84-4; settings: Pseudomonas aeruginosa, VGH844, 18 h, 35° C., read-out: MIC
In short: as §1

[7] = system: Staphylococcus aureus K 82-26; settings: Staphylococcus aureus, K8226, 18 h, 35° C., read-out: MIC
In short: as §1

[8] = system: Serratia marcescens CMC 83-74; settings: Serratia marcescens, CMC8374, 18 h, 35° C., read-out: MIC
In short: as §1

[9] = system: Streptococcus faecalis CMC 83-120; settings: Enterococcus faecalis, CMC83120, 18 h, 35° C., read-out: MIC
In short: as §1

[10] = system: Serratia marcescens K 84-18; settings: Serratia marcescens, K8418, 18 h, 35° C., read-out: MIC
In short: as §1

[11] = system: Klebsiella pneumoniae IO 83-5; settings: Klebsiella pneumoniae, IO835, 18 h, 35° C., read-out: MIC
In short: as §1

[12] = system: Pseudomonas aeruginosa K 84-16; settings: Pseudomonas aeruginosa, K8416, 18 h, 35° C., read-out: MIC
In short: as §1

[13] = system: Serratia marcescens IO 83-63; settings: IO8363, 18 hours, 35° C.
In short: as §1

[14] = system: Proteus rettgeri IO 83-21; settings: Providencia rettgeri, IO8321, 18 h, 35° C., read-out: MIC
In short: as §1

[15] = system: Proteus rettgeri CMC 84-41; settings: Providencia rettgeri, CMC8441, 18 h, 35° C., read-out: MIC
In short: as §1

[16] = system: Serratia marcescens VGH 84-30; settings: Serratia marcescens, VGH8430, 18 h, 35° C., read-out: MIC
In short: as §1

[17] = system: Enterobacter cloacae MOR 84-30; settings: Enterobacter cloacae, MOR8430, 18 h, 35° C., read-out: MIC
In short: as §1

[18] = system: Morganella morganii CMC 84-37; settings: Morganella morganii, CMC8437, 18 h, 35° C., read-out: MIC
In short: as §1

[19] = system: Pseudomonas aeruginosa CMC 83-20; settings: Pseudomonas aeruginosa, CMC8320, 18 h, 35° C., read-out: MIC
In short: as §1

[20] = system: Staphylococcus aureus ATTC 29213; settings: 35° C.
In short: as §1

[21] = system: Enterobacter cloacae VGH 84-39; settings: Enterobacter cloacae, VGH8439, 18 h, 35° C., read-out: MIC
In short: as §1

[22] = system: Escherichia coli CMC 84-50; settings: Escherichia coli, CMC8450, 18 h, 35° C., read-out: MIC
In short: as §1

Citrobacter div. K 82-24 = settings: Citrobacter, DIV.K8224, 18 h, 35° C., read-out: MIC
In short: as §1

Escherichia coli LL 311 = settings: Escherichia coli, LL311, 18 h, 35° C., read-out: MIC
In short: as §1

[23] = system: Serratia marcescens MOR 84-41; settings: Serratia marcescens, MOR8441, 18 h, 35° C., read-out: MIC
In short: as §1

[24] = system: Morganella morganii CMC 84-38; settings: Morganella morganii, CMC8438, 18 h, 35° C., read-out: MIC
In short: as §1

[25] = system: Streptococcus faecalis UCI 85-19; settings: Enterococcus faecalis, UCI8519, 18 h, 35° C., read-out: MIC
In short: as §1

[26] = system: Streptococcus faecalis VGH 84-69; settings: Enterococcus faecalis, VGH8469, 18 h, 35° C., read-out: MIC
In short: as §1

[27] = system: Staphylococcus aureus VGH 84-47; settings: Staphylococcus aureus, VGH8447, 18 h, 35° C., read-out: MIC
In short: as §1

[28] = system: Staphylococcus aureus VGH 84-45; settings: Staphylococcus aureus, VGH8445, 18 h, 35° C., read-out: MIC
In short: as §1

[29] = system: Klebsiella pneumoniae CMC 84-31; settings: Klebsiella pneumoniae, CMC8431, 18 h, 35° C., read-out: MIC
In short: as §1

[30] = system: Staphylococcus aureus CMC 83-131; settings: Staphylococcus aureus, CMC83131, 18 h, 35° C., read-out: MIC
In short: as §1

[31] = Escherichia coli, ATCC25922, 18 h, read-out: MIC
[32] = Staphylococcus aureus, ATTC29213, 18 h, read-out: MIC

Structure (SMILES): O=C(O)c1cn(C2CC2)c2cc(N3CCNC(c4ccoc4)C3)c(F)cc2c1=O (centres unmarked) [Example 92]
- MIC [1]: 0.06 µg/mL (≈ 0.151 µM)
- MIC [2]: 2 µg/mL (≈ 5.03 µM)
- MIC [3]: 0.03 µg/mL (≈ 0.0755 µM)
- MIC [4]: 0.25 µg/mL (≈ 0.629 µM)
- MIC ([5]; 18 hours): 0.12 µg/mL (≈ 0.302 µM)
- MIC [5, 31]: 0.06 µg/mL (≈ 0.151 µM)
- MIC [6]: 2 µg/mL (≈ 5.03 µM)
- MIC [7]: 0.12 µg/mL (≈ 0.302 µM)
- MIC [8]: 8 µg/mL (≈ 20.1 µM)
- MIC [9]: 1 µg/mL (≈ 2.52 µM)
- MIC [10]: 0.25 µg/mL (≈ 0.629 µM)
- MIC [11]: 0.25 µg/mL (≈ 0.629 µM)
- MIC [12]: 4 µg/mL (≈ 10.1 µM)
- MIC [13]: 1 µg/mL (≈ 2.52 µM)
- MIC [14]: 0.5 µg/mL (≈ 1.26 µM)
- MIC [15]: 0.12 µg/mL (≈ 0.302 µM)
- MIC [16]: 4 µg/mL (≈ 10.1 µM)
- MIC [17]: 1 µg/mL (≈ 2.52 µM)
- MIC [18]: 0.06 µg/mL (≈ 0.151 µM)
- MIC [19]: 4 µg/mL (≈ 10.1 µM)
- MIC ([20]; 18 hours): 0.12 µg/mL (≈ 0.302 µM)
- MIC [20, 32]: 0.06 µg/mL (≈ 0.151 µM)
- MIC [21]: 0.12 µg/mL (≈ 0.302 µM)
- MIC [22]: 0.12 µg/mL (≈ 0.302 µM)
- MIC (Citrobacter div. K 82-24): 0.06 µg/mL (≈ 0.151 µM)
- MIC (Escherichia coli LL 311): 0.03 µg/mL (≈ 0.0755 µM)
- MIC [23]: 0.25 µg/mL (≈ 0.629 µM)
- MIC [24]: 0.25 µg/mL (≈ 0.629 µM)
- MIC [25]: 1 µg/mL (≈ 2.52 µM)
- MIC [26]: 1 µg/mL (≈ 2.52 µM)
- MIC [27]: 0.12 µg/mL (≈ 0.302 µM)
- MIC [28]: 0.03 µg/mL (≈ 0.0755 µM)
- MIC [29]: 0.12 µg/mL (≈ 0.302 µM)

Structure (SMILES): CCn1cc(C(=O)O)c(=O)c2cc(F)c(N3CCNC(c4ccoc4)C3)cc21 (centres unmarked) [Example 94, 1-Ethyl-6-fluoro-1,4-dihydro-4-oxo-7-[3-(3-furanyl)-1-piperazinyl]-3-quinolinecarboxylic acid]
- MIC [1]: 0.25 µg/mL (≈ 0.649 µM)
- MIC [2]: 8 µg/mL (≈ 20.8 µM)
- MIC [3]: 0.12 µg/mL (≈ 0.311 µM)
- MIC [4]: 1 µg/mL (≈ 2.59 µM)
- MIC ([5]; 18 hours): 0.5 µg/mL (≈ 1.3 µM)
- MIC [5, 31]: 0.25 µg/mL (≈ 0.649 µM)
- MIC [6]: 4 µg/mL (≈ 10.4 µM)
- MIC [7]: 0.25 µg/mL (≈ 0.649 µM)
- MIC [8]: 16 µg/mL (≈ 41.5 µM)
- MIC [9]: 4 µg/mL (≈ 10.4 µM)
- MIC [10]: 0.5 µg/mL (≈ 1.3 µM)
- MIC [11]: 1 µg/mL (≈ 2.59 µM)
- MIC [12]: 16 µg/mL (≈ 41.5 µM)
- MIC [13]: 1 µg/mL (≈ 2.59 µM)
- MIC [14]: 1 µg/mL (≈ 2.59 µM)
- MIC [15]: 0.25 µg/mL (≈ 0.649 µM)
- MIC [16]: 8 µg/mL (≈ 20.8 µM)
- MIC [17]: 4 µg/mL (≈ 10.4 µM)
- MIC [18]: 0.12 µg/mL (≈ 0.311 µM)
- MIC [19]: 8 µg/mL (≈ 20.8 µM)
- MIC [21]: 0.5 µg/mL (≈ 1.3 µM)
- MIC [22]: 0.25 µg/mL (≈ 0.649 µM)
- MIC (Citrobacter div. K 82-24): 0.25 µg/mL (≈ 0.649 µM)
- MIC (Escherichia coli LL 311): 0.12 µg/mL (≈ 0.311 µM)
- MIC [23]: 0.5 µg/mL (≈ 1.3 µM)
- MIC [24]: 0.25 µg/mL (≈ 0.649 µM)
- MIC [25]: 4 µg/mL (≈ 10.4 µM)
- MIC [26]: 2 µg/mL (≈ 5.19 µM)
- MIC [27]: 0.25 µg/mL (≈ 0.649 µM)
- MIC [28]: 0.12 µg/mL (≈ 0.311 µM)
- MIC [29]: 0.5 µg/mL (≈ 1.3 µM)

Structure (SMILES): O=C(O)c1cn(C2CC2)c2cc(N3CCNC(c4cc[nH]n4)C3)c(F)cc2c1=O (centres unmarked) [Example 121, 1-Cyclopropyl-6-fluoro-1,4-dihydro-4-oxo-7-[3-(1H-pyrazol-3-yl)-1-piperazinyl]-3-quinolinecarboxylic acid]
- MIC [1]: 0.25 µg/mL (≈ 0.629 µM)
- MIC [2]: 16 µg/mL (≈ 40.3 µM)
- MIC [3]: 0.06 µg/mL (≈ 0.151 µM)
- MIC [4]: 1 µg/mL (≈ 2.52 µM)
- MIC [6]: 8 µg/mL (≈ 20.1 µM)
- MIC [7]: 1 µg/mL (≈ 2.52 µM)
- MIC [8]: > 16 µg/mL
- MIC [9]: 5 µg/mL (≈ 12.6 µM)
- MIC [10]: 0.25 µg/mL (≈ 0.629 µM)
- MIC [11]: 1 µg/mL (≈ 2.52 µM)
- MIC [12]: > 16 µg/mL
- MIC [14]: 1 µg/mL (≈ 2.52 µM)
- MIC [15]: 0.5 µg/mL (≈ 1.26 µM)
- MIC [16]: 32 µg/mL (≈ 80.5 µM)
- MIC [17]: 4 µg/mL (≈ 10.1 µM)
- MIC [18]: 1 µg/mL (≈ 2.52 µM)
- MIC [19]: 16 µg/mL (≈ 40.3 µM)
- MIC ([20]; 18 hours): 2 µg/mL (≈ 5.03 µM)
- MIC [20, 32]: 1 µg/mL (≈ 2.52 µM)
- MIC [21]: 0.5 µg/mL (≈ 1.26 µM)
- MIC [30]: 2 µg/mL (≈ 5.03 µM)
- MIC [22]: 0.25 µg/mL (≈ 0.629 µM)
- MIC (Citrobacter div. K 82-24): 0.25 µg/mL (≈ 0.629 µM)
- MIC (Escherichia coli LL 311): 0.12 µg/mL (≈ 0.302 µM)
- MIC [23]: 1 µg/mL (≈ 2.52 µM)
- MIC [24]: 0.5 µg/mL (≈ 1.26 µM)
- MIC [25]: 2 µg/mL (≈ 5.03 µM)
- MIC [26]: 2 µg/mL (≈ 5.03 µM)
- MIC [27]: 1 µg/mL (≈ 2.52 µM)
- MIC [28]: 0.5 µg/mL (≈ 1.26 µM)
- MIC [29]: 0.25 µg/mL (≈ 0.629 µM)
